Laboratory results: US20210395210A1, “INHIBITION OF BACTERIAL CHAPERONIN SYSTEMS” (THE TRUSTEES OF INDIANA UNIVERSITY, priority 2018, published 2021)
Entries after “also recorded” stand apart in the source; their conditions may differ. Read-outs that look alike come from different tables or passages of the source.

Assays:
[1] = test system: THLE-3 liver cells; test: Liver cell viability assay (Alamar Blue); details: read-out: Human Cell Viability CC50, Liver (THLE-3); THLE-3 liver cells, Alamar Blue, 48 h
Experimental: (§1) HEK 293 cells were maintained in MEM medium (Corning Cellgro, 10-009 CV) supplemented with 10% FBS (Sigma, F2242). […] Cells at 80% confluence were harvested and diluted in growth medium, then 45 μL of the THLE-3 cells (1,500 cells/well) or HEK 293 cells (1,500 cells/well) were dispensed per well, and plates were sealed with “Breathe Easy” oxygen permeable membranes (Diversified Biotech) and incubated at 37° C., 5% CO2, for 24 h.

[2] = test system: HEK 293 kidney cells; test: Kidney cell viability assay (Alamar Blue); details: read-out: Human Cell Viability CC50, Kidney (HEK 293); HEK 293 kidney cells, Alamar Blue, 48 h
Experimental: as §1

[3] = test system: MRSA (ATCC BAA-44); test: MRSA resistance generation, 12-day serial passage assay; format: cell-based, Staphylococcus aureus; details: 12 days serial passage, EC50 per passage
Experimental: To identify potential resistance toward compounds 1 and 11, a liquid culture, 12-day serial passage assay was employed as per previously reported procedures, and using the ATCC BAA-44 MRSA strain. MRSA bacteria were streaked onto a Tryptic Soy agar plate and grown overnight at 37° C. A fresh aliquot of Tryptic Soy Broth (TSB) was inoculated with a single bacterial colony and the cultures were grown overnight at 37° C. with shaking (250 rpm). The overnight culture was then sub-cultured (1:5 dilution) into a fresh aliquot of media and grown at 37° C. for 1 h with shaking, then diluted into fresh media to achieve a final OD600 reading of 0.01. Aliquots of the diluted culture (200 μL) were dispensed to 96 well plates along with addition of 2 μL of test compounds in DMSO (1, 11, vancomycin, and a previously-reported GroEUES inhibitor, “28R”). The inhibitor concentration range during the resistance assay was 100 μM to 48.8 nM (2-fold dilution series). Plates were sealed with “Breathe Easy” oxygen permeable membranes (Diversified Biotech) and left to incubate at 37° C. without shaking (stagnant assay). OD600 readings were taken at the 24 h time point to monitor for bacterial growth. A second set of baseline control plates were prepared analogously, without any bacteria added, to correct for possible compound absorbance and/or precipitation, as well as plate and media baseline effects. […]

[4] = test system: S. aureus Rosenbach (ATCC 25923) in established biofilms; test: S. aureus biofilm penetration and bactericidal activity assay; format: cell-based, Staphylococcus aureus; details: read-out: S. aureus Proliferation & Biofilm Assay EC50 Killing Bacteria in Biofilms
Experimental: The biofilm penetration and bactericidal activity assay was carried out with S. aureus Rosenbach (ATCC 25923) as described previously by Kwasny et al. S. aureus bacteria were streaked onto a Tryptic Soy Broth (TSB) agar plate and grown overnight at 37° C. A fresh aliquot of TSB media was inoculated with a single bacterial colony and the cultures were grown overnight at 37° C. with shaking (250 rpm). The overnight culture was then sub-cultured (1:5 dilution) into a fresh aliquot of TSB media supplemented with 0.5% glucose and grown at 37° C. for 1 h with shaking, then diluted into fresh TSB media supplemented with 0.5% glucose to achieve a final OD600 reading of 0.01. Aliquots of the diluted culture (100 μL) were dispensed to 96 well polystyrene plates without any compounds added. A second set of control plates were prepared analogously, but without any bacteria added. Plates were sealed with “Breathe Easy” oxygen permeable membranes (Diversified Biotech) and left to incubate at 37° C. without shaking (stagnant assay) until biofilm was formed. After 24 h, the planktonic cultures (or media blanks in the control plates) were removed and the plates were washed gently 3 times with 200 μL of sterile phosphate buffered saline (PBS). Then, 100 μL aliquots of fresh TSB media were dispensed to the plates along with addition of 1 μL of test compounds in DMSO. The inhibitor concentration range during the assay was 100 μM to 46 nM (3-fold dilution series). The plates were sealed with “Breathe Easy” membranes and incubated at 37° C. without shaking to allow compounds to penetrate and kill bacteria in the biofilms. After 24 h, the cultures were removed and plates were washed again gently 3 times with 200 μL of sterile PBS. The remaining bacteria in the biofilms were allowed to recover by adding 100 μL of fresh TSB media per well and incubating for 24 h at 37° C. At the end of this final incubation, bacterial growth was monitored by measuring the OD600 nm using a Molecular Devices SpectraMax Plus384 microplate reader. […] Results presented represent the averages of EC50 values obtained from at least triplicate experiments.
Next, we evaluated whether or not compounds would be bactericidal to S. aureus that were within already established biofilms. In this assay, we first grew S. aureus bacteria for 24 h in the absence of test compounds so that they could establish biofilms in the wells. After 24 h, the cultures were removed, the wells were washed gently, and fresh media was added along with test compounds or vancomycin. […] Fresh media was then added and the cultures were incubated for another 24 h to allow any viable bacteria remaining in the biofilms to emerge and grow planktonically again.

[5] = Staphylococcus aureus, ATCC25923, 24 h

SMILES	CC50 [1] [µM]	CC50 [2] [µM]	EC50 [4, 5] [µM]	further results
CC1(C)S[C@@H]2[C@H](NC(=O)[C@H](N)c3ccccc3)C(=O)N2[C@H]1C(=O)O [Ampicillin, ampicillin, reference compound]	> 100	> 100		
Cc1cc(C(C#N)c2ccc(Cl)cc2)c(Cl)cc1NC(=O)c1cc(I)cc(I)c1O (stereo not drawn) [Closantel, closantel, reference compound]		75		
O=C(Nc1ccc(Sc2nc3ccccc3s2)c(Cl)c1)c1cc(Br)cc(Br)c1O [Compound 1, N-(4-(Benzo[d]thiazol-2-ylthio)-3-chlorophenyl)-3,5-dibromo-2-hydroxybenzamide]			2.4	ability of MRSA to generate resistance (in words) [3]: not able to easily generate resistance; also recorded: retained sensitivity
O=C(Nc1ccc(Sc2nc3ccccc3s2)c(Cl)c1)c1cccc(Br)c1O [Compound 2, N-(4-(Benzo[d]thiazol-2-ylthio)-3-chlorophenyl)-3-bromo-2-hydroxybenzamide]			5.6	
O=C(Nc1ccc(Sc2nc3ccccc3s2)cc1)c1cc(Br)cc(Br)c1O [Compound 5, N-(4-(Benzo[d]thiazol-2-ylthio)phenyl)-3,5-dibromo-2-hydroxybenzamide]			2.3	
O=C(Nc1ccc(Sc2nc3ccccc3s2)cc1)c1ccccc1O [Compound 8, N-(4-(Benzo[d]thiazol-2-ylthio)phenyl)-2-hydroxybenzamide]				EC50 ([4]; Staphylococcus aureus, ATCC25923, established 24 h biofilm, 24 h with compound, 24 h recovery, OD600): 2 µM
O=C(Nc1cccc(Cl)c1)c1cc(Br)cc(Br)c1O [Compound 9, 3,5-Dibromo-N-(3-chlorophenyl)-2-hydroxybenzamide]	9.2	18		
O=C(Nc1cccc(Cl)c1)c1cc(Br)ccc1O [Compound 11, 5-Bromo-N-(3-chlorophenyl)-2-hydroxybenzamide]			6.9	ability of MRSA to generate resistance (in words) [3]: not able to easily generate resistance; also recorded: retained sensitivity
O=C(Nc1ccccc1)c1cc(Br)cc(Br)c1O [Compound 13, 3,5-Dibromo-2-hydroxy-N-phenylbenzamide]	25	34		
O=C(Nc1ccccc1)c1ccccc1O [Compound 16, 2-Hydroxy-N-phenylbenzamide]	68	> 100		
O=C(Nc1ccc(Oc2ccc(Cl)cc2)c(Cl)c1)c1cc(I)cc(I)c1O [Rafoxanide, rafoxanide, reference compound]	24	> 100		
CN[C@H](CC(C)C)C(=O)N[C@H]1C(=O)N[C@@H](CC(N)=O)C(=O)N[C@H]2C(=O)N[C@H]3C(=O)N[C@H](C(=O)N[C@H](C(=O)O)c4cc(O)cc(O)c4-c4cc3ccc4O)[C@H](O)c3ccc(c(Cl)c3)Oc3cc2cc(c3O[C@@H]2O[C@H](CO)[C@@H](O)[C@H](O)[C@H]2O[C@H]2C[C@](C)(N)[C@H](O)[C@H](C)O2)Oc2ccc(cc2Cl)[C@H]1O [Vancomycin, vancomycin, reference compound]	> 100	> 100		EC50 ([4]; established 24 h biofilm, 24 h with compound, 24 h recovery, OD600): > 100 µM
